Values quoted from earlier work as cited in patent US20100227801A1, “PHARMACEUTICAL COMPOSITIONS” (Scynexis, Inc., priority 2009, published 2010).

What was measured:
HCV = conditions: phase Ib clinical trial
HCV subgenomic replicon = conditions: subgenomic replicon system
HCV full length replicon = conditions: full length replicon system

In the case of CC(C)OC(=O)[C@H](C)NP(=O)(OC[C@H]1O[C@@H](n2ccc(=O)[nH]c2=O)[C@](C)(F)[C@@H]1O)Oc1ccccc1 (stereo partly drawn) [PSI-7851], the “activity against HCV infected patients” value (HCV) is listed as “demonstrated activity”.
For C/C=C/C[C@@H](C)[C@@H](O)[C@H]1C(=O)N[C@@H](CC)C(=O)N(C)[C@H](SCCN(C)C)C(=O)N(C)[C@@H](CC(C)(C)O)C(=O)N[C@@H](C(C)C)C(=O)N(C)[C@@H](CC(C)C)C(=O)N[C@@H](C)C(=O)N[C@H](C)C(=O)N(C)[C@@H](CC(C)C)C(=O)N(C)[C@@H](CC(C)C)C(=O)N(C)[C@@H](C(C)C)C(=O)N1C [SCY-635, 3-[(R)-2-(N,N-dimethylamino)ethylthio-Sar]-4-(gammahydroxymethylleucine)cyclosporine], the “inhibition of HCV-specific RNA replication” value (HCV subgenomic replicon) is listed as “potent and selective inhibition” and the “inhibition of HCV-specific RNA replication” value (HCV full length replicon) is listed as “potent and selective inhibition”.
